Test results reported in US4248863A, “Antibiotics saframycins A, B, C, D and E and process for producing the same” (priority 1977, dated 1981).
≈ marks a conversion by molar mass, not a printed value.

Experiments:
[1] = tested on: Saccharomyces cerevisiae; experiment: Antimicrobial spectrum, MIC (Table 4); settings: Saccharomyces cerevisiae, 48 h
[2] = tested on: Mycobacterium avium; experiment: Antimicrobial spectrum, MIC (Table 4); assay type: cell-based; settings: Mycobacterium avium; 3% glycerol nutrient agar for acid-fast bacteria, 37° C., 24 or 48 hours; read-out: MIC
[3] = tested on: Mycobacterium sp. 607; experiment: Antimicrobial spectrum, MIC (Table 4); assay type: cell-based; settings: Mycobacterium, SP.607; 3% glycerol nutrient agar for acid-fast bacteria, 37° C., 24 or 48 hours; read-out: MIC
[4] = tested on: Bacillus subtilis; experiment: Antimicrobial spectrum, MIC (Table 4); assay type: cell-based; settings: Bacillus subtilis; 1% glucose nutrient agar, 37° C., 24 or 48 hours; read-out: MIC
[5] = tested on: Staphylococcus aureus Smith; experiment: Antimicrobial spectrum, MIC (Table 4); assay type: cell-based; settings: Staphylococcus aureus; 1% glucose nutrient agar, 37° C., 24 or 48 hours; read-out: MIC
[6] = tested on: Serratia marcescens; experiment: Antimicrobial spectrum, MIC (Table 4); assay type: cell-based; settings: Serratia marcescens; 1% glucose nutrient agar, 37° C., 24 or 48 hours; read-out: MIC
[7] = tested on: Staphylococcus citreus; experiment: Antimicrobial spectrum, MIC (Table 4); assay type: cell-based; settings: Staphylococcus; 1% glucose nutrient agar, 37° C., 24 or 48 hours; read-out: MIC
[8] = tested on: Mucor mucedo; experiment: Antimicrobial spectrum, MIC (Table 4); settings: Mucor mucedo, 48 h
[9] = tested on: Pseudomonas aeruginosa; experiment: Antimicrobial spectrum, MIC (Table 4); assay type: cell-based; settings: Pseudomonas aeruginosa; 1% glucose nutrient agar, 37° C., 24 or 48 hours; read-out: MIC
[10] = tested on: Aspergillus oryzae; experiment: Antimicrobial spectrum, MIC (Table 4); settings: Aspergillus oryzae, 48 h
[11] = tested on: Escherichia coli; experiment: Antimicrobial spectrum, MIC (Table 4); assay type: cell-based; settings: Escherichia coli; 1% glucose nutrient agar, 37° C., 24 or 48 hours; read-out: MIC
[12] = tested on: stomach carcinoma; experiment: Effect against human tumors heterotransplanted to nude mice; assay type: in vivo, human tumor in nude mice; settings: human tumor heterotransplanted to nude mice
[13] = tested on: Penicillium glaucum; experiment: Antimicrobial spectrum, MIC (Table 4); settings: Penicillium, 48 h
[14] = tested on: Staphylococcus albus; experiment: Antimicrobial spectrum, MIC (Table 4); assay type: cell-based; settings: Staphylococcus; 1% glucose nutrient agar, 37° C., 24 or 48 hours; read-out: MIC
[15] = tested on: Streptococcus pyogenes; experiment: Antimicrobial spectrum, MIC (Table 4); assay type: cell-based; settings: Streptococcus pyogenes; blood agar, 37° C., 24 or 48 hours; read-out: MIC
[16] = tested on: mouse lymphocytic leukemia L1210; experiment: Effect on mouse lymphocytic leukemia L1210 in vivo; settings: DBF1 mice, 1×10^5 cells intraperitoneal; 1.5 mg/kg daily for 2 days intraperitoneal, started 3 hours after implantation
Procedure: When DDY mice were implanted with 1×10^5 cells of Ehrlich ascites tumor and daily intraperitoneal treatment of saframycin A at a dose of 0.5 mg/kg was initiated 24 hours after tumor implantation for 4 days, 30% of mice were cured and survived more than 30 days. With a dose of 1.0 mg/kg, 60% of mice was cured. The effects of saframycin A by intraperitoneal treatment on mouse lymphocytic leukemia L1210 and lymphoid leukemia P388 were studied with DBF1 mice. […] With P388 tumor, the inoculum size of 1×10^6 cells was employed and the treatment was initiated after 24 hours. Saframycin A at a daily dose of 0.75 mg/kg for 10 days produced T/C of 219%. The effect of saframycin A was then studied against human tumors, two lines of uterine cervical carcinoma, melanoma, oat cell carcinoma and stomach carcinoma, heterotransplanted to nude mice.

[17] = tested on: Shigella dysenteriae Shiga; experiment: microbe, parasite or virus in culture; assay type: cell-based; settings: Shigella dysenteriae
[18] = tested on: Streptococcus pyogenes 090R; experiment: Antimicrobial spectrum, MIC (Table 4); assay type: cell-based; settings: Streptococcus pyogenes, 090R; blood agar, 37° C., 24 or 48 hours; read-out: MIC
[19] = tested on: Klebsiella pneumoniae; experiment: Antimicrobial spectrum, MIC (Table 4); assay type: cell-based; settings: Klebsiella pneumoniae; 1% glucose nutrient agar, 37° C., 24 or 48 hours; read-out: MIC
[20] = tested on: Candida albicans; experiment: Antimicrobial spectrum, MIC (Table 4); settings: Candida albicans, 48 h
[21] = tested on: uterine cervical carcinoma; experiment: Effect against human tumors heterotransplanted to nude mice; assay type: in vivo, human tumor in nude mice; settings: human tumor heterotransplanted to nude mice
[22] = tested on: Trichophyton mentagrophytes; experiment: Antimicrobial spectrum, MIC (Table 4); settings: Trichophyton mentagrophytes, 72 h
[23] = tested on: Staphylococcus aureus 209P; experiment: Antimicrobial spectrum, MIC (Table 4); assay type: cell-based; settings: Staphylococcus aureus, 209P; 1% glucose nutrient agar, 37° C., 24 or 48 hours; read-out: MIC
[24] = tested on: Mycobacterium phlei; experiment: Antimicrobial spectrum, MIC (Table 4); assay type: cell-based; settings: Mycolicibacterium phlei; 3% glycerol nutrient agar for acid-fast bacteria, 37° C., 24 or 48 hours; read-out: MIC
[25] = tested on: Rhodotorula glutinis; experiment: Antimicrobial spectrum, MIC (Table 4); settings: Rhodotorula glutinis, 48 h
[26] = Toxicity in mice; settings: mouse, in vivo
[27] = tested on: Salmonella typhimurium; experiment: Antimicrobial spectrum, MIC (Table 4); assay type: cell-based; settings: Salmonella enterica, TYPHIMURIUM; 1% glucose nutrient agar, 37° C., 24 or 48 hours; read-out: MIC
[28] = tested on: Micrococcus luteus; experiment: Antimicrobial spectrum, MIC (Table 4); assay type: cell-based; settings: Micrococcus luteus; 1% glucose nutrient agar, 37° C., 24 or 48 hours; read-out: MIC
[29] = tested on: Staphylococcus salivarius; experiment: Antimicrobial spectrum, MIC (Table 4); assay type: cell-based; settings: Staphylococcus; 1% glucose nutrient agar, 37° C., 24 or 48 hours; read-out: MIC
[30] = tested on: Bacillus cereus; experiment: Antimicrobial spectrum, MIC (Table 4); assay type: cell-based; settings: Bacillus cereus; 1% glucose nutrient agar, 37° C., 24 or 48 hours; read-out: MIC
[31] = tested on: Aspergillus niger; experiment: Antimicrobial spectrum, MIC (Table 4); settings: Aspergillus niger, 48 h
[32] = tested on: Corynebacterium dephtheriae; experiment: Antimicrobial spectrum, MIC (Table 4); assay type: cell-based; settings: Corynebacterium; 1% glucose nutrient agar, 37° C., 24 or 48 hours; read-out: MIC
[33] = tested on: Corynebacterium xerosis; experiment: Antimicrobial spectrum, MIC (Table 4); assay type: cell-based; settings: Corynebacterium xerosis; 1% glucose nutrient agar, 37° C., 24 or 48 hours; read-out: MIC
[34] = tested on: Streptococcus faecalis; experiment: Antimicrobial spectrum, MIC (Table 4); assay type: cell-based; settings: Enterococcus faecalis; 1% glucose nutrient agar, 37° C., 24 or 48 hours; read-out: MIC
[35] = tested on: Brucella abortus; experiment: microbe, parasite or virus in culture; assay type: cell-based; settings: Brucella abortus
[36] = tested on: Ehrlich ascites tumor; experiment: Activity against Ehrlich ascites tumor in DDY mice; assay type: in vivo; settings: 1×10^5 cells, initiated 24 hours after implantation, 4 days
[37] = tested on: Nocardia asteroides; experiment: Antimicrobial spectrum, MIC (Table 4); assay type: cell-based; settings: Nocardia asteroides; 37° C., 24 or 48 hours; read-out: MIC

With `COC1=C(C)C(=O)C2=C(C1=O)C1C3CC4=C(C(=O)C(OC)=C(C)C4=O)C(CNC(=O)C(C)=O)N3C(C#N)C(C2)N1C` (stereo not drawn) [saframycin A] as the compound, how does the MIC [1] read?
The MIC was over 100 µg/mL.

What about the MIC [2] of the same compound?
The MIC was 12.5 µg/mL (≈ 22.2 µM).

What about the MIC [3] of the same compound?
Its MIC is 12.5 µg/mL (≈ 22.2 µM).

What about the MIC [4] of the same compound?
Its MIC is 0.1 µg/mL (≈ 0.178 µM).

And the MIC [5]?
The MIC was 0.05 µg/mL (≈ 0.0889 µM).

And the MIC [6]?
Its MIC is over 100 µg/mL.

What about the MIC [7] of the same compound?
Its MIC is 0.1 µg/mL (≈ 0.178 µM).

And the MIC [8]?
Its MIC is over 100 µg/mL.

And the MIC [9]?
Its MIC is over 100 µg/mL.

And the MIC [10]?
The MIC was over 100 µg/mL.

And the MIC [11]?
The MIC was 50 µg/mL (≈ 88.9 µM).

And the “activity against stomach carcinoma” value [12]?
Its value is “selectively active on cervical carcinoma and stomach carcinoma producing the inhibition of tumor growth and significant histological changes in tumor tissue”.

What about the MIC [13] of the same compound?
Its MIC is 50 µg/mL (≈ 88.9 µM).

And the MIC [14]?
Its MIC is 0.1 µg/mL (≈ 0.178 µM).

What about the MIC [15] of the same compound?
The MIC was 0.78 µg/mL (≈ 1.39 µM).

And the “T/C (survival period of treated group over survival period of control group)” value [16]?
Its value is 183%.

What about the MIC [17] of the same compound?
Its MIC is 25 µg/mL (≈ 44.4 µM).

And the MIC [18]?
The MIC was 6.25 µg/mL (≈ 11.1 µM).

What about the MIC [19] of the same compound?
The MIC was 6.25 µg/mL (≈ 11.1 µM).

What about the MIC [20] of the same compound?
The MIC was over 100 µg/mL.

What about the “activity against cervical carcinoma” value [21] of the same compound?
The value was “selectively active on cervical carcinoma and stomach carcinoma producing the inhibition of tumor growth and significant histological changes in tumor tissue”.

And the MIC [22]?
Its MIC is over 100 µg/mL.

And the MIC [23]?
Its MIC is 0.1 µg/mL (≈ 0.178 µM).

And the MIC [24]?
The MIC was 25 µg/mL (≈ 44.4 µM).

And the MIC [25]?
Its MIC is over 100 µg/mL.

And the LD50 ([26]; ip)?
The LD50 was 40 mg/kg.

What about the LD50 ([26]; iv) of the same compound?
Its LD50 is 12 mg/kg.

And the MIC [27]?
Its MIC is 100 µg/mL (≈ 178 µM).

And the MIC [28]?
Its MIC is 0.05 µg/mL (≈ 0.0889 µM).

And the MIC [29]?
Its MIC is 6.25 µg/mL (≈ 11.1 µM).

What about the MIC [30] of the same compound?
The MIC was 12.5 µg/mL (≈ 22.2 µM).

What about the MIC [31] of the same compound?
Its MIC is over 100 µg/mL.

What about the MIC [32] of the same compound?
Its MIC is under 0.003 µg/mL.

What about the MIC [33] of the same compound?
Its MIC is under 0.003 µg/mL.

What about the MIC [34] of the same compound?
The MIC was 6.25 µg/mL (≈ 11.1 µM).

What about the MIC [35] of the same compound?
Its MIC is 6.25 µg/mL (≈ 11.1 µM).

What about the “mice cured and survived more than 30 days” value ([36]; 0.5 mg/kg daily intraperitoneal) of the same compound?
The value was 30%.

What about the mice cured ([36]; 1.0 mg/kg daily intraperitoneal) of the same compound?
Its mice cured is 60%.

And the MIC [37]?
Its MIC is 6.25 µg/mL (≈ 11.1 µM).
